In US7906655B2, “Hepatitis C virus inhibitors” (Bristol-Myers Squibb Company, priority 2008, dated 2011) one finds EC50 data, which are given here for 16 molecules.

The test system of one assay is HCV 1b genotype. Put plainly: HCV Replicon assay (HCV-neo replicon cells, wild-type). The class given is cell-based. The following applies: HCV 1b genotype replicon; class symbols. In short, it runs like this:
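Inhibition was measured in HCV-neo (genotype 1b) replicon cells. Some assay versions used luciferase reporters.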
(In general: A replicon is a self-replicating genome or part of one, used to study replication in cells.)
For the molecule `O=C(Cc1ccccn1)N1CCC[C@H]1c1nc2cc(C#Cc3ccc4[nH]c([C@@H]5CCCN5C(=O)Cc5ccccn5)nc4c3)ccc2[nH]1` [Example M7, 5,5′-(1,2-ethynediyl)bis(2-((2S)-1-(2-pyridinylacetyl)-2-pyrrolidinyl)-1H-benzimidazole)], the half-maximal effective concentration (EC50) is under 4.57 nM.

Consider `O=C1CC[C@@H](c2nc3cc(CCc4ccc5nc([C@@H]6CCC(=O)N6C(=O)OCc6ccccc6)[nH]c5c4)ccc3[nH]2)N1C(=O)OCc1ccccc1` [OL3, benzyl (2S)-2-(5-(2-(2-((2S)-1-(((benzyloxy)carbonyl)-5-oxo-2-pyrrolidinyl)-1H-benzimidazol-6-yl)ethyl)-1H-benzimidazol-2-yl)-5-oxo-1-pyrrolidinecarboxylate], for which the concentration giving a half-maximal response (EC50) lay in the range of 100 to 999 nM.

Still in this assay, the particulars now being: HCV 1b genotype replicon; numeric values.
As for `C[C@@H](c1nc2cc(C#Cc3ccc4[nH]c([C@H](C)N(C)C(=O)[C@@](C)(O)c5ccccc5)nc4c3)ccc2[nH]1)N(C)C(=O)[C@@](C)(O)c1ccccc1` [Example M34], the EC50 was 40 nM.

The same assay, now with this note: Hepatitis C virus, HCV 1b genotype replicon; class symbols.
For the molecule `O=C(Cc1cccnc1)N1CCC[C@H]1c1nc2ccc(C#Cc3ccc4[nH]c([C@@H]5CCCN5C(=O)[C@H]5CCCO5)nc4c3)cc2[nH]1` [Example M49, 5-((2-((2S)-1-(3-pyridinylacetyl)-2-pyrrolidinyl)-1H-benzimidazol-6-yl)ethynyl)-2-((2S)-1-((2R)-tetrahydro-2-furanylcarbonyl)-2-pyrrolidinyl)-1H-benzimidazole], the half-maximal effective concentration (EC50) was under 4.57 nM. On the same count and under the same terms, next, `O=C(c1ccoc1)N1CCC[C@H]1c1nc2cc(C#Cc3ccc4[nH]c([C@@H]5CCCN5C(=O)c5ccoc5)nc4c3)ccc2[nH]1` [Example M13, 5,5′-(1,2-ethynediyl)bis(2-((2S)-1-(3-furoyl)-2-pyrrolidinyl)-1H-benzimidazole)]: under 4.57 nM; `COC(=O)N[C@@H](C(=O)N1CCC[C@H]1c1nc2c(-c3ncc(-c4ccc5[nH]c([C@@H]6CCCN6C(=O)[C@H](NC(C)=O)c6ccccc6)nc5c4)o3)cccc2[nH]1)c1ccccc1` (mixture of isomers) [Example J6.1, methyl ((1R)-2-((2S)-2-(4-(5-(2-((2S)-1-(acetamido (phenyl)acetyl)-2-pyrrolidinyl)-1H-benzimidazol-5-yl)-1,3-oxazol-2-yl)-1H-benzimidazol-2-yl)-1-pyrrolidinyl)-2-oxo-1-phenylethyl) carbamate]: under 4.57 nM; `O=C(c1ccco1)N1CCC[C@H]1c1nc2ccc(C#Cc3ccc4[nH]c([C@@H]5CCCN5C(=O)[C@H]5CCCO5)nc4c3)cc2[nH]1` [Example M51, 5-((2-((2S)-1-(2-furoyl)-2-pyrrolidinyl)-1H-benzimidazol-6-yl)ethynyl)-2-((2S)-1-((2R)-tetrahydro-2-furanylcarbonyl)-2-pyrrolidinyl)-1H-benzimidazole]: under 4.57 nM. Same read-out and setting: the same measure for `O=C(Cc1ccccc1)N1C[C@@H](N2CCOCC2)C[C@H]1c1nc2cc(C#Cc3ccc4[nH]c([C@@H]5C[C@H](N6CCOCC6)CN5C(=O)Cc5ccccc5)nc4c3)ccc2[nH]1` [Example M37.3, 5,5′-(1,2-ethynediyl)bis(2-((2S,4S)-4-(4-morpholinyl)-1-(phenylacetyl)-2-pyrrolidinyl)-1H-benzimidazole)]: 4.57 to 99 nM. With `CNc1ccccc1C(=O)N1CCC[C@H]1c1nc2cc(C#Cc3ccc4[nH]c([C@@H]5CCCN5C(=O)[C@H]5CCCO5)nc4c3)ccc2[nH]1` [Example M54.11, N-methyl-2-(((2S)-2-(5-((2-((2S)-1-((2R)-tetrahydro-2-furanylcarbonyl)-2-pyrrolidinyl)-1H-benzimidazol-5-yl)ethynyl)-1H-benzimidazol-2-yl)-1-pyrrolidinyl)carbonyl)aniline], the concentration for a half-maximal effect (EC50) lay within 4.57 to 99 nM. In the case of `COC(=O)N[C@H](C(=O)N1[C@@H]2C[C@@H]2C[C@H]1c1nc2cc(Oc3cccc(-c4ccc5[nH]c([C@@H]6C[C@H]7C[C@H]7N6C(=O)[C@@H](NC(=O)OC)C(C)C)nc5c4)c3)ccc2[nH]1)C(C)C` [Example V1, Methyl((1S)-1-(((1R,3S,5R)-3-(5-(3-(2-((1R,3S,5R)-2-((2S)-2-((methoxycarbonyl)amino)-3-methylbutanoyl)-2-azabicyclo[3.1.0]hex-3-yl)-1H-benzimidazol-5-yl)phenoxy)-1H-benzimidazol-2-yl)-2-azabicyclo[3.1.0]hex-2-yl)carbonyl)-2-methylpropyl)carbamate], the concentration for a half-maximal effect (EC50) was under 4.57 nM. The same measure, in the same setting: next, `O=C([C@H]1CCCO1)N1C[C@H](O)C[C@H]1c1nc2cc(C#Cc3ccc4[nH]c([C@@H]5C[C@@H](O)CN5C(=O)[C@H]5CCCO5)nc4c3)ccc2[nH]1` [Example M47.1, (3R,5S,3′R,5′S)-5,5′-(1,2-ethynediylbis(1H-benzimidazole-5,2-diyl))bis(1-((2R)-tetrahydro-2-furanylcarbonyl)-3-pyrrolidinol)]: 100 to 999 nM; `CN1CCN([C@@H](C(=O)N2CCC[C@H]2c2nc3cc(-c4cnc(-c5cccc6[nH]c([C@@H]7CCCN7C(=O)[C@@H](c7ccccc7)N7CCN(C)CC7)nc56)o4)ccc3[nH]2)c2ccccc2)CC1` [Example J14, 2-((2S)-1-((2R)-2-(4-methyl-1-piperazinyl)-2-phenylacetyl)-2-pyrrolidinyl)-4-(5-(2-((2S)-1-((2R)-2-(4-methyl-1-piperazinyl)-2-phenylacetyl)-2-pyrrolidinyl)-1H-benzimidazol-5-yl)-1,3-oxazol-2-yl)-1H-benzimidazole]: under 4.57 nM. Same read-out and setting: the same measure for `CC(C)C(=O)N1CCC[C@H]1c1nc2ccc(C#Cc3ccc4[nH]c([C@@H]5CCCN5C(=O)[C@H]5CCCO5)nc4c3)cc2[nH]1` [Example M54.8, 5-((2-((2S)-1-isobutyryl-2-pyrrolidinyl)-1H-benzimidazol-6-yl)ethynyl)-2-((2S)-1-((2R)-tetrahydro-2-furanylcarbonyl)-2-pyrrolidinyl)-1H-benzimidazole]: 4.57 to 99 nM; for `O=C(OCc1ccccc1)N1CCC[C@H]1c1nc2cc(C#Cc3ccc4[nH]c([C@@H]5CCCN5C(=O)[C@H]5CCCO5)nc4c3)ccc2[nH]1` [Example M54, benzyl (2S)-2-(5-((2-((2S)-1-((2R)-tetrahydro-2-furanylcarbonyl)-2-pyrrolidinyl)-1H-benzimidazol-5-yl)ethynyl)-1H-benzimidazol-2-yl)-1-pyrrolidine-carboxylate]: under 4.57 nM; for `CN(C)[C@@H](C(=O)N1CCC[C@H]1c1nc2cc(-c3ccc(-c4ccc5nc([C@@H]6CCCN6C(=O)[C@@H](c6ccccc6)N(C)C)[nH]c5c4)o3)ccc2[nH]1)c1ccccc1` [JG4, (1R)-2-((2S)-2-(5-(5-(2-((2S)-1-((2R)-2-(dimethylamino)-2-phenylacetyl)-2-pyrrolidinyl)-1H-benzimidazol-6-yl)-2-furyl)-1H-benzimidazol-2-yl)-1-pyrrolidinyl)-N,N-dimethyl-2-oxo-1-phenylethanamine]: under 4.57 nM.

Still in this assay, the particulars now being: Hepatitis C virus, HCV 1b genotype replicon; numeric values.
In the case of `COC(=O)N[C@H](C(=O)N1CCC[C@H]1c1nc2cc(-c3cnc(-c4cccc5[nH]c([C@@H]6CCCN6C(=O)[C@@H](NC(=O)OC)C(C)C)nc45)o3)ccc2[nH]1)C(C)C` [Example J10, methyl ((1S)-1-(((2S)-2-(4-(5-(2-((2S)-1-((2S)-2-(methoxy-carbonyl)amino)-3-methyl-butanoyl)-2-pyrrolidinyl)-1H-benzimidazol-5-yl)-1,3-oxazol-2-yl)-1H-benzimidazol-2-yl)-1-pyrrolidinyl)carbonyl)-2-methylpropyl) carbamate], the concentration for a half-maximal effect (EC50) was determined as 0.007 nM.

In general, EC50 refers to the midpoint of the concentration-response curve.
